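Five concentrations, 48 hours, 96-well plates. At the TGI there is no net growth.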
How the values were obtained:
Assay in all cases: NCI tumour cell line growth inhibition, 48 h
A549 NSCLC = test system: A549 NSCLC
K-562 leukemia = test system: K-562 leukemia
NCI-H23 lung = test system: NCI-H23 lung
MALME-3M melanoma = test system: MALME-3M melanoma
UACC-62 melanoma = test system: UACC-62 melanoma
CAKI-1 renal = test system: CAKI-1 renal
HS 578T breast = test system: HS 578T breast
SK-MEL-2 melanoma = test system: SK-MEL-2 melanoma
M14 melanoma = test system: M14 melanoma
MDA-N = test system: MDA-N
CCRF-CEM leukemia = test system: CCRF-CEM leukemia
OVCAR-3 ovarian = test system: OVCAR-3 ovarian
HCT-15 colon = test system: HCT-15 colon
KM12 colon = test system: KM12 colon
SR leukemia = test system: SR leukemia
OVCAR-5 ovarian = test system: OVCAR-5 ovarian
NCI/ADR-RES ovarian = test system: NCI/ADR-RES ovarian
SW-620 colon = test system: SW-620 colon
HOP-62 NSCLC = test system: HOP-62 NSCLC
HL-60(TB) leukemia = test system: HL-60(TB) leukemia

Compound | TGI (A549 NSCLC) [µM] | TGI (K-562 leukemia) [µM] | TGI (NCI-H23 lung) [µM] | TGI (MALME-3M melanoma) [µM] | TGI (UACC-62 melanoma) [µM] | TGI (CAKI-1 renal) [µM] | TGI (HS 578T breast) [µM] | TGI (SK-MEL-2 melanoma) [µM] | TGI (M14 melanoma) [µM] | TGI (MDA-N) [µM] | TGI (CCRF-CEM leukemia) [µM] | TGI (OVCAR-3 ovarian) [µM] | TGI (HCT-15 colon) [µM] | TGI (KM12 colon) [µM] | TGI (SR leukemia) [µM] | TGI (OVCAR-5 ovarian) [µM] | TGI (NCI/ADR-RES ovarian) [µM] | TGI (SW-620 colon) [µM] | TGI (HOP-62 NSCLC) [µM] | TGI (HL-60(TB) leukemia) [µM]
N=c1c2ccccc2nc2oc3ccc(Cl)cc3n12 | 97 | > 100 | 34.2 | 40.1 | > 100 | 37.5 | 20.3 | 51.3 | 56.9 | > 100 | > 100 | 31.4 | > 100 | > 100 | > 100 | 47.1 | > 100 | > 100 | 19.2 | 
COc1cc(C2SC(N)=Nc3c2c(C)nn3C(=O)Cc2ccccc2)ccc1O (configuration not stated) | > 100 | > 100 | > 100 | > 100 | > 100 | > 100 | > 100 |  | > 100 | > 100 | > 100 |  | > 100 | > 100 | > 100 |  |  | > 100 | > 100 | > 100
O=C(NO)c1ccc(OCc2ccccc2)cc1 | > 100 | > 100 | 28.1 |  | 36.5 | 54.2 | > 100 | > 100 | > 100 | > 100 | > 100 | > 100 | 45 | > 100 | 90.9 | > 100 | 32.1 | > 100 | > 100 | > 100
Cc1ccc2cccc(OC(=O)c3cc4c(cc3Cl)Sc3nccn3S4(=O)=O)c2n1 | 28.5 | 23.9 | 63.6 | 47.4 | 32.6 | > 79.9 | > 100 | 27.1 | 25.7 | > 96 | 17 | 11.6 | 29 | 18.7 | 16.7 | > 61.2 | 46.2 | 40.3 | 19.4 | 
O=C(O)C1CCCN1Cc1ccc2c(c1)OCO2 (configuration not stated) | > 100 | > 100 | > 100 | > 100 | > 100 | > 100 | > 100 | > 100 | > 100 | > 100 |  | > 100 | > 100 | > 100 | > 100 | > 100 | > 100 | > 100 | > 100 | 
CCOC(=O)c1nc2ccc(C(F)(F)F)cc2nc1Nc1ccc(OC)c(OC)c1 | > 100 | > 100 | > 100 | > 100 | > 100 | 86.5 | > 100 |  | > 100 | > 100 | > 100 | > 100 | > 100 | > 100 | > 100 | > 100 | > 100 | > 100 | 29 | > 100
CC1CC(=O)NC2CC1C2(C)C (configuration not stated) | > 100 | > 100 | > 100 | > 100 | > 100 |  | > 100 | > 100 | > 100 | > 100 | > 100 | > 100 | > 100 | > 100 | > 100 | > 100 |  | > 100 |  | > 100
CC(C)C(/C=C/c1ccc(Cl)cc1)=N\NC(=S)NN | > 100 | > 100 | > 100 | > 100 | 30.5 | > 100 | 72.3 | 44.5 | > 100 | > 100 | 13.7 | 78 | > 100 | > 100 |  | > 100 | 48.1 | > 100 | > 100 | 30.7
O=C1CCC2(c3ccc(F)cc3)Nc3ncncc3N12 (configuration not stated) | > 10 | > 10 | > 10 | > 10 | > 10 |  | > 10 | > 10 | > 10 | > 10 | > 10 | > 10 | > 10 | > 10 | > 10 | > 10 | > 10 | > 10 |  | 
O=C1/C(=C/c2cccc([N+](=O)[O-])c2)N=C(c2ccccc2)N1c1ccc2c(c1)Sc1cc(N3C(=O)/C(=C/c4cccc([N+](=O)[O-])c4)N=C3c3ccccc3)ccc1N2 | > 100 | 96.7 | 92.4 | 41.1 | 31.7 | 54 | > 100 | 39.9 | 87.9 | 35 | 55.3 | 28.4 | > 100 | > 100 |  | 35.8 | > 100 | > 100 | 49.5 | 64.6
Cc1ccc(OCCn2cc(Nc3ccccc3)c(=O)[nH]c2=O)cc1 | > 100 | > 100 | > 100 | > 100 | > 100 | > 100 | > 100 | > 100 | > 100 | > 100 | > 100 | > 100 | > 100 | > 100 | > 100 | > 100 | > 100 | > 100 |  | 
Cc1c(C)c(C)c(CSC(=N)N)c(C)c1C | 30.9 | 30.2 | 33.4 | 32.9 | 24.2 | 25.8 | 36.4 | 27.8 | 22.7 | 40.3 | 35.4 | 32.1 | 31.3 | 39.3 |  | 29.8 | 30.6 | 29 | 29.1 | 27.6
O=C(CN1CCCC1)Nc1ccc2sc3ccccc3c(=O)c2n1 | 38.8 | 46.7 | 99.1 |  | 36.6 | 47.1 | 52.1 | 49.1 | 54.4 | 77.6 | 48.2 | > 100 | > 100 | 44.2 | > 100 | 62.3 | 54.5 | 33.6 | 65 | 
COc1cc(OC)nc(NC(=O)NS(=O)(=O)c2cccc3ncn(C)c(=O)c23)n1 | > 100 | > 100 | > 100 | > 100 | > 100 | > 100 | > 100 | > 100 | > 100 | > 100 | > 100 | > 100 | > 100 |  | > 100 | > 100 | > 100 | > 100 | > 100 | > 100
CC[C@@H]1C[C@@H](O)[C@@H]2[C@H](O)[C@H](O)CN2C1 | > 100 | > 100 | > 100 | > 100 | > 100 | > 100 | > 100 | > 100 | > 100 | > 100 | > 100 | > 100 | > 100 | > 100 |  | > 100 | > 100 | > 100 |  | > 100
COc1ccc2nc(-c3ccc(O)cc3)cn2c1 | > 100 | > 100 | > 100 | > 100 | 86.2 | > 100 | > 100 | > 100 | > 100 | > 100 | > 100 | > 100 | > 100 | > 100 | > 100 | > 100 | > 100 | > 100 | > 100 | 
CN(C)N1C(=O)CC2(CCN(CCCC(=O)c3ccc(F)cc3)CC2)C1=O | > 100 | > 100 | > 100 | > 100 | > 100 | > 100 | > 100 | > 100 | > 100 | > 100 |  | > 100 | > 100 | > 100 | > 100 | > 100 | > 100 | > 100 | > 100 | > 100
O=C1C(c2c(O)[nH]c3ccc(S(=O)(=O)N(CCO)CCO)cc23)=Nc2ccccc21 | > 100 | > 100 | > 100 | > 100 | > 100 | > 100 | > 100 | > 100 | > 100 | > 100 | > 100 | > 100 | > 100 | > 100 | > 100 | > 100 | > 100 | > 100 | > 100 | 
COc1ccc(C2Oc3c(cccc3OC)C=C2[N+](=O)[O-])cc1 (configuration not stated) | 26.4 | 16.3 | 12.4 | 10 | 5.72 | 4.31 | 8.82 |  | 2.15 | 13.1 | > 100 | 4.75 | 5.81 | 4.52 | > 100 | 6.48 | 14.5 |  | 5.8 | > 100
CCC(C)(C)c1ccc(Oc2cccc(C(=O)O)c2)cc1 | > 100 | > 100 | > 100 | > 100 | > 100 | > 100 | > 100 | > 100 | > 100 | > 100 | 68 | 70.1 | > 100 | > 100 |  | > 100 | > 100 | > 100 | > 100 | > 100
O=C(O)CCCC#CCCCC(=O)O | > 100 | > 100 | > 100 | > 100 | > 100 | > 100 | > 100 | > 100 | > 100 | > 100 |  | > 100 | > 100 | > 100 | > 100 | > 100 | > 100 |  | > 100 | 
CCCC[Si](CCCC)(CCCC)O[C@@H](/C=C/C(=O)OCC)[C@H](Cc1ccccc1)O[Si](CCCC)(CCCC)CCCC | > 100 | > 100 | > 100 | > 100 | > 100 | > 100 | > 100 | > 100 |  | > 100 | > 100 |  | > 100 | > 100 | > 100 | > 100 | > 100 | > 100 | > 100 | 
CCNC(=O)Cc1nc2c(=O)[nH]cnc2n1C1OC(CO)C(O)C1O (configuration not stated) | > 100 | > 100 | > 100 | > 100 | > 100 | > 100 | > 100 | > 100 | > 100 | > 100 | > 100 | > 100 | > 100 | > 100 |  | > 100 | > 100 | > 100 | > 100 | > 100
COc1ccc(N=C2C(=Nc3ccc(OC)cc3)N(c3ccccc3[N+](=O)[O-])C(=S)N2c2ccc(OC)cc2)cc1 | > 100 | > 100 | > 100 |  | > 100 | > 100 | > 100 | > 100 | > 100 | > 100 |  | > 100 | > 100 | > 100 | > 100 | > 100 | > 100 | > 100 | > 100 | 
Clc1ccc(CSCc2ccc(Cl)cc2Cl)c(Cl)c1 | > 100 | > 100 | > 100 | 72.5 | > 100 | > 100 | > 100 | 51.3 | > 100 | > 100 | 51.7 | > 100 | > 100 | > 100 |  | > 100 | > 100 | > 100 | > 100 | > 100
